Data published in patent US6083964A, “Optical resolution of racemic aminoalkylpyridine anticonvulsants and (+) aminoalkylpyridine enantiomers as highly potent orally effective anticonvulsant drugs and excitatory amino acid antagonists” (K and K Biosciences, Inc., priority 1999, dated 2000).
Where two headings read alike, the source gives them in different places.

What was measured:
[1] = test system: maximal electroshock seizure (MES) in rats; assay: Maximal electroshock seizure (MES) test, rats, p.o.; assay type: in vivo, rat (Sprague-Dawley); conditions: for ED50: Rattus norvegicus, po, MES test, read-out: ED50; for % protection (lowest and highest) during 4 hour period: 4 rats per point
Source text: (§1) The (+) AAP enantiomers obtained by optical resolution of racemic AAPs and the resulting highly orally effective anticonvulsant compositions of this invention are useful in the treatment of convulsive disorders. […] A series of (+) AAP enantiomers and (-) AAP enantiomers of this invention has been evaluated for anticonvulsant activity by the intraperitoneal (i.p.) and by the oral (p.o.) route using two standard seizure models in the mouse and in the rat, the maximal electroshock seizure (MES) test and the subcutaneous pentylenetetrazol (Metrazole) seizure threshold (scMet) test. […] The following Table 2 presents the results of these anticonvulsant tests with respect to several (+) and (-) AAP enantiomeric compounds derived from optical resolution of racemic AAPs of the present invention. This Table 2 identifies the specific compounds tested by their chemical name and provides the test model, the route of administration, the animal species used, and the anticonvulsant activity and toxicity in terms of ED50 and TD50 values, (the median effective and toxic dose respectively), when intraperitoneally administered to mice, and when orally administered to rats. The Maximal Electroshock Seizure Test (MES): Maximal electroshock seizures are elicited with a 60 Hz alternating current of 50 mA intensity in mice and about 150 mA intensity in rats (5-7 times that necessary to elicit minimal electroshock seizures), delivered for 0.2 sec via corneal electrodes. A drop of 0.9% saline is instilled in the eye prior to application of the electrodes in order to […]. Abolition of the hind limb tonic extension component of the seizure is defined as protection and results are expressed as number of animals protected/number of animals tested. The Subcutaneous Pentylenetetrazol (Metrazole) Seizure Threshold Test (scMet): A 0.5% solution of 85 mg/kg of pentylenetetrazol is administered subcutaneously in the posterior midline 30 minutes or 4 hours after drug administration to the animal. […] This species will be the subject of the complete anticonvulsant quantification test evaluation as described above, but after oral (gavage) administration of the candidate compound.

[2] = Neurological deficit, positional sense test and gait and stance test, rats, p.o.; set-up: species or system rat (Sprague-Dawley); conditions: rat, in vivo, po
Method: Neurotoxicity is determined by the rotorod ataxia test in mice and by the positional sense test and gait and stance test in the rat. The following Table 2 presents the results of these anticonvulsant tests with respect to several (+) and (-) AAP enantiomeric compounds derived from optical resolution of racemic AAPs of the present invention. This Table 2 identifies the specific compounds tested by their chemical name and provides the test model, the route of administration, the animal species used, and the anticonvulsant activity and toxicity in terms of ED50 and TD50 values, (the median effective and toxic dose respectively), when intraperitoneally administered to mice, and when orally administered to rats. […] This species will be the subject of the complete anticonvulsant quantification test evaluation as described above, but after oral (gavage) administration of the candidate compound. […] Neurological deficit in rats is examined by the positional sense test and gait and stance test. […] Inability to do so rapidly indicates a neurologic deficit. In the gait and stance test, a neurologic deficit is indicated by a circular or a zigzag gait, ataxia, abnormal spread of the legs, abnormal body posture, tremor, hyperactivity, lack of exploratory behavior, somnolence, stupor, or catalepsy.

[3] = test system: maximal electroshock seizure (MES) in mice; assay: Maximal electroshock seizure (MES) test, mice, i.p.; assay type: in vivo, mouse (male Carworth Farms #1); conditions: for % protection: 100 mg/kg; for % protection / P.I. (protective index, TD50/ED50): MES; for ED50: MES test
Source text: as §1, with “rats. In mice, i.p.: All compounds are emulsified in 0.5% methylcellulose. The solvent has been tested for anticonvulsant and toxic effects and found to introduce no significant bias into the testing of anticonvulsant activity. The compounds are administered intraperitoneally in a volume of 0.01 ml/gm to male Carworth Farms #1 mice weighing about 20 gm. All compounds are tested at least at three dose levels (30, 100 and 300 mg/kg) at 30 minutes and 4 hours after their administration.” for “rats.”, “Anticonvulsant Quantification in Mice i.p.: The ED50 values are determined in” for “This species will be”, “MES, scMet and rotorod ataxia test. To determine the ED50 values, five logarithmically spaced doses” for “subject”, “the” for “the complete anticonvulsant quantification”, “compound are administered to animals (male Carworth Farms #1 mice) in groups of eight, to cover 0-100% protection, and the dose required to protect 50%” for “evaluation as described above, but after oral (gavage) administration”, “animals (ED50) together with its 95% confidence limits, is determined graphically.” for “candidate compound.”

[4] = test system: neurotoxicity (rotorod ataxia) in mice; assay: Neurotoxicity, rotorod ataxia test, mice, i.p.; set-up: species or system mouse (male Carworth Farms #1); conditions: mouse, in vivo, ip
Method: Neurotoxicity is determined by the rotorod ataxia test in mice and by the positional sense test and gait and stance test in the rat. The following Table 2 presents the results of these anticonvulsant tests with respect to several (+) and (-) AAP enantiomeric compounds derived from optical resolution of racemic AAPs of the present invention. This Table 2 identifies the specific compounds tested by their chemical name and provides the test model, the route of administration, the animal species used, and the anticonvulsant activity and toxicity in terms of ED50 and TD50 values, (the median effective and toxic dose respectively), when intraperitoneally administered to mice, and when orally administered to rats. In mice, i.p.: All compounds are emulsified in 0.5% methylcellulose. The solvent has been tested for anticonvulsant and toxic effects and found to introduce no significant bias into the testing of anticonvulsant activity. The compounds are administered intraperitoneally in a volume of 0.01 ml/gm to male Carworth Farms #1 mice weighing about 20 gm. All compounds are tested at least at three dose levels (30, 100 and 300 mg/kg) at 30 minutes and 4 hours after their administration. Neurotoxicity is evaluated in mice by the rotorod ataxia test. The animal is placed on a wooden rod of 1 and 1/8 diameter rotating at 6 rpm. Normal mice can remain on a rod rotating at this speed indefinitely. […] Anticonvulsant Quantification in Mice i.p.: The ED50 values are determined in the MES, scMet and rotorod ataxia test. To determine the ED50 values, five logarithmically spaced doses of the test compound are administered to animals (male Carworth Farms #1 mice) in groups of eight, to cover 0-100% protection, and the dose required to protect 50% of the animals (ED50) together with its 95% confidence limits, is determined graphically.

[5] = rat, p.o. for racemic AAPs, MES

Compound: CC(Nc1ccc(Cl)c(Cl)c1)c1ccncc1 (racemic) [N-(3,4-Dichlorophenyl)-1-(4-pyridyl)ethylamine, reference compound]
- P.I. (protective index, TD50/ED50) [1, 5]: > 16.8
- TD50 [2]: > 500 mg/kg

Compound: CCC(Nc1ccc(Cl)c(Cl)c1)c1ccncc1 (racemic) [N-(3,4-Dichlorophenyl)-1-(4-pyridyl)propylamine, reference compound]
- % protection (lowest and highest) during a 4-hour period ([1]; rat, p.o. for racemic AAPs, 30 mg/kg, 5 time points 0.25-4 hours, MES): 0-50%

Compound: CC(Nc1cccc(Cl)c1)c1ccncc1 (racemic) [N-(3-Chlorophenyl)-1-(4-pyridyl)ethylamine, reference compound]
- ED50 ([1]; p.o. for racemic AAPs): 34 mg/kg
- P.I. (protective index, TD50/ED50) [1, 5]: > 14.7
- TD50 [2]: > 500 mg/kg

Compound: CC(Nc1ccc(Br)cc1)c1ccncc1 (racemic) [N-(4-Bromophenyl)-1-(4-pyridyl)ethylamine, reference compound]
- ED50 ([1]; p.o. for racemic AAPs): 20.9 mg/kg
- P.I. (protective index, TD50/ED50) [1, 5]: > 23.9
- TD50 [2]: > 500 mg/kg

Compound: CC(Nc1ccc(Cl)cc1)c1ccncc1 (racemic) [N-(4-Chlorophenyl)-1-(4-pyridyl)ethylamine, reference compound]
- ED50 ([1]; p.o. for racemic AAPs): 22.9 mg/kg
- P.I. (protective index, TD50/ED50) [1, 5]: > 20.5
- TD50 [2]: > 470 mg/kg

Compound: CCC(Nc1ccc(Cl)cc1)c1ccncc1 (racemic) [N-(4-Chlorophenyl)-1-(4-pyridyl)propylamine, reference compound]
- ED50 ([1]; p.o. for racemic AAPs): 25 mg/kg
- P.I. (protective index, TD50/ED50) [1, 5]: > 20
- TD50 [2]: > 500 mg/kg

Compound: CC(Nc1cccc(Cl)c1)c1ccncc1 (single isomer, unassigned; (+)) [Compound 3, (+) N-(3-Chlorophenyl)-1-(4-pyridyl)ethylamine]
- % protection (lowest and highest) during 4 hour period ([1]; rat, p.o., 30 mg/kg, 5 time points 0.25-4 hours, MES, listed as (2) (+) Enantiomer, 30 mg/kg): 25-75%
- % protection ([3]; listed as (2) (+) Enantiomer): 67%

Compound: CC(Nc1ccc(Br)cc1)c1ccncc1 (single isomer, unassigned; (+)) [Compound 11, (+) N-(4-Bromophenyl)-1-(4-pyridyl)ethylamine]
- ED50 ([1]; p.o.): 9.3 mg/kg
- P.I. (protective index, TD50/ED50) ([1]; rat, p.o., MES): > 53.7
- TD50 [4]: 133.9 mg/kg
- ED50 ([3]; listed as (6) (+) Enantiomer): 34.7 mg/kg
- P.I. (protective index, TD50/ED50) ([3]; listed as (6) (+) Enantiomer): 3.9
- TD50 [2]: > 500 mg/kg

Compound: CC(Nc1cccc(Cl)c1)c1ccncc1 (single isomer, unassigned; (-)) [Compound 4, (-) N-(3-Chlorophenyl)-1-(4-pyridyl)ethylamine]
- ED50 ([1]; p.o.): 29.6 mg/kg
- % protection (lowest and highest) during 4 hour period ([1]; rat, p.o., 30 mg/kg, 5 time points 0.25-4 hours, MES, listed as (2) (-) Enantiomer): 50-100%
- P.I. (protective index, TD50/ED50) ([1]; rat, p.o., MES): > 2.1
- % protection ([3]; listed as (2) (-) Enantiomer): 33%
- TD50 [2]: > 62.5 mg/kg

Compound: CC(Nc1ccc(Cl)c(Cl)c1)c1ccncc1 (single isomer, unassigned; (-)) [Compound 6, (-) N-(3,4-Dichlorophenyl)-1-(4-pyridyl)ethylamine]
- % protection (lowest and highest) during 4 hour period ([1]; rat, p.o., 30 mg/kg, 5 time points 0.25-4 hours, MES, listed as (3) (-) Enantiomer): 25-75%
- TD50 [4]: 279.2 mg/kg
- ED50 ([3]; listed as (3) (-) Enantiomer): 125.4 mg/kg
- P.I. (protective index, TD50/ED50) ([3]; listed as (3) (-) Enantiomer): 2.2

Compound: CCC(Nc1ccc(Cl)cc1)c1ccncc1 (single isomer, unassigned; (-)) [Compound 8, (-) N-(4-Chlorophenyl)-1-(4-pyridyl)propylamine]
- % protection (lowest and highest) during 4 hour period ([1]; rat, p.o., 30 mg/kg, 5 time points 0.25-4 hours, MES, listed as (4) (-) Enantiomer): 25-100%
- TD50 [4]: 269.4 mg/kg
- ED50 ([3]; listed as (4) (-) Enantiomer): 118.9 mg/kg
- P.I. (protective index, TD50/ED50) ([3]; listed as (4) (-) Enantiomer): 2.3

Compound: CCC(Nc1ccc(Cl)c(Cl)c1)c1ccncc1 (single isomer, unassigned; (-)) [Compound 10, (-) N-(3,4-Dichlorophenyl)-1-(4-pyridyl)propylamine]
- % protection (lowest and highest) during 4 hour period ([1]; rat, p.o., 30 mg/kg, 5 time points 0.25-4 hours, MES, listed as (5) (-) Enantiomer): 25-100%
- TD50 [4]: 275.2 mg/kg
- ED50 ([3]; listed as (5) (-) Enantiomer): 117.3 mg/kg
- P.I. (protective index, TD50/ED50) ([3]; listed as (5) (-) Enantiomer): 2.3

Compound: CC(Nc1ccc(Br)cc1)c1ccncc1 (single isomer, unassigned; (-)) [Compound 12, (-) N-(4-Bromophenyl)-1-(4-pyridyl)ethylamine]
- % protection (lowest and highest) during 4 hour period ([1]; rat, p.o., 30 mg/kg, 5 time points 0.25-4 hours, MES): 25-75%
- TD50 [4]: 287.6 mg/kg
- ED50 ([3]; listed as (6) (-) Enantiomer): 85.5 mg/kg
- P.I. (protective index, TD50/ED50) ([3]; listed as (6) (-) Enantiomer): 3.4
